Laboratory results published in paper PMC7594079, “Insights into the Function and Evolution of Taste 1 Receptor Gene Family in the Carnivore Fish Gilthead Seabream (Sparus aurata)” (International Journal of Molecular Sciences, 2020).

Tests used:
Type in all cases: cell-based
[1] = system: pGL3-NFAT-luc reporter (Ca2+/NFAT signaling); assay: pGL3-NFAT-luc construct responsiveness in transiently transfected HEK293 cells; conditions: 10-fold serial dilutions
Description: The luciferase reporter system used in the present study is based on a pGL3-plasmid including three (N)uclear (F)actor of (A)ctivated T cells (NFAT)-responsive elements located upstream of an interleukin-2 (IL2) minimal promoter driving expression of the firefly luciferase reporter gene (pGL3-NFAT-luc plasmid; Addgene (Watertown, MA, USA), cat. number. 17870). To evaluate pGL3-NFAT-luc construct responsiveness, transiently transfected HEK293 cells were stimulated with Phorbol 12-myristate 13-acetate (PMA) and ionomycin, two compounds known to modulate NFAT signaling by mobilization of intracellular Ca^2+ storages.
Figure 4 Evaluation of pGL3-NFAT-luc construct responsiveness to 10-fold serial dilutions to PMA (A) and ionomycin (B) in transiently transfected HEK293 cells. RLU%: Relative Luminescence Unit percentage. […] BL (Basal Levels) = 100% RLU. Different lowercase letters (a,b) on top of bars indicate significant differences (p < 0.05) between concentrations, assessed by one-way ANOVA followed by Tukey’s Multiple Comparison Test (GraphPad Prism version 5.00 Software, La Jolla, CA, USA). […]

saT1R2b/R3 = target: T1, saT1R2b/R3 (Sparus aurata, UniProt A0A671TG56+A0A671VZB3); assay: saT1R2b/R3 heterodimer transiently transfected in stable pGL3-NFAT-luc-HEK293 (Cl.3) cells, luciferase reporter; conditions: saT1R2b/R3; tested 1–500 mM
T1 sequence (A0A671TG56 20-821): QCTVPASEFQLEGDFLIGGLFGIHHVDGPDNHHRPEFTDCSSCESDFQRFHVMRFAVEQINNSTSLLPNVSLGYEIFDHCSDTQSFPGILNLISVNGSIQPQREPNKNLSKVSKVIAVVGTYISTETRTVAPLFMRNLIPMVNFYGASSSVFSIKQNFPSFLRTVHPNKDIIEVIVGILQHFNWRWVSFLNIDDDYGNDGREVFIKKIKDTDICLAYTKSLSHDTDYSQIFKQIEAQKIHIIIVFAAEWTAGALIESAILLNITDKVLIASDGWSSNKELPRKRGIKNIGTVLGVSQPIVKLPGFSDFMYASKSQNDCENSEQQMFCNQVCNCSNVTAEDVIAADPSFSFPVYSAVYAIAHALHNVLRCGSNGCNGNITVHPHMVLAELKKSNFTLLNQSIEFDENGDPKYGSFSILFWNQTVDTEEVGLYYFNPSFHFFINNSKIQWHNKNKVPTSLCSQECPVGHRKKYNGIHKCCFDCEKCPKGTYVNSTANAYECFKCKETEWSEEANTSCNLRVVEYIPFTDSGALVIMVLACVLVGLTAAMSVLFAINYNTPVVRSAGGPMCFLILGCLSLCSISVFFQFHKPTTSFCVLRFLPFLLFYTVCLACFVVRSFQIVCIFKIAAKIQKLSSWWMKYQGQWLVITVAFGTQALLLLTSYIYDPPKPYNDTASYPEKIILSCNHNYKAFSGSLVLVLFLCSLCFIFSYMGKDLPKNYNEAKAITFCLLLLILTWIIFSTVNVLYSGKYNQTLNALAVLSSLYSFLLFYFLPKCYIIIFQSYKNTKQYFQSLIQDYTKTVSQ
T1 sequence (A0A671VZB3 24-860): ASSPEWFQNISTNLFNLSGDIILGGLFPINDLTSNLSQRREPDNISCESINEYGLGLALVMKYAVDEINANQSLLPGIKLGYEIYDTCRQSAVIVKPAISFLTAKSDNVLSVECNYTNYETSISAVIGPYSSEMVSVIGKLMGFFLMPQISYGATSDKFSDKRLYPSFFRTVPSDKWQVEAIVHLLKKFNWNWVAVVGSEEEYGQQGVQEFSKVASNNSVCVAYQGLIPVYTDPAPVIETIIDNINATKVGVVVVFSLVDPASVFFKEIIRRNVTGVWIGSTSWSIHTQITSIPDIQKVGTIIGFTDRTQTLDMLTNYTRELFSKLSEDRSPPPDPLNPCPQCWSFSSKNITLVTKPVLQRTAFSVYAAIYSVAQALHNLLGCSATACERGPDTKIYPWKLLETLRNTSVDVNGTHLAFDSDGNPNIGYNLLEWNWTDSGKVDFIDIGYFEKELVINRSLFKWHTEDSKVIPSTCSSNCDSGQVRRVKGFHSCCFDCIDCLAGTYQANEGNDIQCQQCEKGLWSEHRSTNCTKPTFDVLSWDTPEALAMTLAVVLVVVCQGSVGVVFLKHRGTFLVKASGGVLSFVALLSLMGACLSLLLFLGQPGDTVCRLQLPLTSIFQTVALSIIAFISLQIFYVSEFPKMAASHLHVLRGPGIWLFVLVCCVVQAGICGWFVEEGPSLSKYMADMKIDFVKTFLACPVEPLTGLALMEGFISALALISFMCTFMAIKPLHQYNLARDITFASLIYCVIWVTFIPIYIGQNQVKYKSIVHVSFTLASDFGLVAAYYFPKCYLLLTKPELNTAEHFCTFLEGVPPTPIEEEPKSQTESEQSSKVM
Description: (§1) Figure 6 Amino acid Log-dose response curves of activation in heterologous co-transfected (Cl.3) cells with saT1R1/3 (green dots), saT1R2a/3 (red squares) and saT1R2b/3 (black triangles) heterodimers. Evaluation of L-AA responses was based on the RLU mean ± SEM of four independent determinations normalized to the mean response of the same transfections stimulated with reduced assay medium (Basal Medium Eagle w/o L-glutamate (BME) + 1% FBS), and expressed as the percentage relative to basal levels (BL).
(§2) HEK293 cells were cultured in standard medium DMEM (Gibco, Thermo Fisher, Saint Louis, MO, USA) containing 10% FBS, penicillin (100 U/mL) and streptomycin ([…]) at 37 °C, with a humidified atmosphere at 5% CO2. pGL3-NFAT-luc-HEK293 stable clones were generated by co-transfections of pGL3-NFAT-luc and tgCMV/HyTK plasmids (50:1), the latter harboring the hygromycin phosphotransferase gene, using Lipofectamine LTX according to supplier’s protocols (Thermo Fisher, Saint Louis, MO, USA). Initially, HEK293 cells were selected using DMEM containing 400 μg/mL hygromycin B (Sigma, Darmstadt, Germany) in 24-well plates for two weeks; 24 colonies were further grown out in 96-well plates under reduced hygromycin selection (200 µg/mL) for three weeks. Potentially resistant NFAT-luc-HEK293 clones (n = 22) were validated after incubation in assay medium (DMEM + 1% FBS) containing PMA or Ionomycin (Sigma, Darmstadt, Germany) for 18 h (triplicates, 50,000 cells/well). Luciferase activity was quantified with ONE-Glo™ EX Reagent Kit (Promega, Madison, WI, USA) using a 96-microplate TECAN reader (Trading AG, Switzerland).
(§3) saT1Rs (saT1R1, saT1R2a, saT1R2b saT1R3) and saGαi1-2 genes were RT-PCR amplified using 5’ and 3’ flanking primers carrying HindIII and XhoI restriction sites, respectively. Gel-purified fragments were cloned into pGEM-T Easy vectors, re-sequenced, digested and subcloned into pcDNA™3 (Invitrogen, Carlsbad, CA, USA). Effective saT1R cloning into pcDNA™3 was further verified by HindIII/XhoI digestion. Transient co-transfections were done in 6-well plates (confluence ~70–80%) using 100 μL of reduced serum medium (Opti-MEM, Gibco, Thermo Fisher, Saint Louis, MO, USA) containing 150 ng of each selected pcDNA™3 construct, 1:10 charge ratio of Enhanced Green Fluorescent expressing construct (EGFP; positive control), and pBluescript II SK (+) vector DNA (Addgene, Watertown, MA, USA) up to 1 µg of totally transfected DNA. Following 24 h incubation, cells were washed with fresh standard medium and plated in polylysine treated plates for additional 24 h. Cells were then stimulated with L-AAs and sugar compounds for 18 h in a reduced assay medium (BME w/o L-glutamate; Gibco, Thermo Fisher, Saint Louis, MO, USA) + 1% FBS), to prevent unspecific Ca^2+/NFAT signaling activation and potential saT1R desensitization. All L-AAs and sugars used for in vitro experiments were obtained from Merck KGaA (Darmstadt, Germany).

saT1R2a/R3 = target: T2, saT1R2a/R3 (Sparus aurata, UniProt A0A671TK95+A0A671VZB3); assay: saT1R2a/R3 heterodimer transiently transfected in stable pGL3-NFAT-luc-HEK293 (Cl.3) cells, luciferase reporter; conditions: saT1R2a/R3; tested 1–500 mM
T2 sequence (A0A671TK95 20-825): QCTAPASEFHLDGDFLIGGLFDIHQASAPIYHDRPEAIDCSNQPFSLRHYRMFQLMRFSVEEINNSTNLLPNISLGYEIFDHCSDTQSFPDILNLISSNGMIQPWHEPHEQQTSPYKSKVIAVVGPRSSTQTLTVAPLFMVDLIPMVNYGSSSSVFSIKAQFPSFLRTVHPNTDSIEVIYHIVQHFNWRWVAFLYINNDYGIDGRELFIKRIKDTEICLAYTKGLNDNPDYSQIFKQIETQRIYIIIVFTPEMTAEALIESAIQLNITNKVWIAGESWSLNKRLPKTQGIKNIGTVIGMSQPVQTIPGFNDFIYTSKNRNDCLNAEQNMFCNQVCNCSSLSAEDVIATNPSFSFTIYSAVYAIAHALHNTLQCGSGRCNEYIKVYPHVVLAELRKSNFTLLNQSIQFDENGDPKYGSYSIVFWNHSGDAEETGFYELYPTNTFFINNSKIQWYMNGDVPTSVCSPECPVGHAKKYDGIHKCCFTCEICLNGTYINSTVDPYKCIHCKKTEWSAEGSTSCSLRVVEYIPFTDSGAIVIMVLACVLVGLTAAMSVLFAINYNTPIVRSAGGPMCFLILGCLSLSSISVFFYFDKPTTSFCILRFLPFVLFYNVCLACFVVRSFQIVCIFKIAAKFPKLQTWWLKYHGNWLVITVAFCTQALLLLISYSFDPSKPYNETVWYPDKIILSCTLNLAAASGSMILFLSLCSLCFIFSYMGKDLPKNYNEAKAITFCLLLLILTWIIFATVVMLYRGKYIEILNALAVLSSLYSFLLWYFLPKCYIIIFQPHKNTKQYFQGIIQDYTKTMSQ
T2 sequence (A0A671VZB3 24-860): T1 sequence (A0A671VZB3 24-860)
Description: as §1, §2, §3

Row | SMILES | luminescence response of pGL3-NFAT-luc construct [1] | concentration with significant activation (saT1R2b/R3) [mM] | concentration with significant activation (saT1R2a/R3) [mM]
1 | C[C@H](CCC(=O)O)C[C@H](C)C[C@H](C)C(=O)/C=C(\O)[C@H](C)C[C@H](C)C/C=C/[C@@H](C)[C@@H](O)[C@@H](C)[C@@H](O)C[C@@H]1CC[C@@](C)([C@H]2CC[C@@](C)([C@@H](C)O)O2)O1 [ionomycin] | significant luminescence dose-response increases |  | 
2 | CCCCCCCCCCCCCC(=O)O[C@@H]1[C@@H](C)[C@@]2(O)[C@@H](C=C(CO)C[C@]3(O)C(=O)C(C)=C[C@@H]23)[C@@H]2C(C)(C)[C@]12OC(C)=O [PMA, Phorbol 12-myristate 13-acetate] | significant luminescence dose-response increases |  | 
3 | OC[C@@H]1O[C@@H](O[C@@]2(CO)O[C@@H](CO)[C@H](O)[C@H]2O)[C@@H](O)[C@H](O)[C@H]1O [L-Sucrose] |  | 100 | 100
